# From patent US8288371B2, “Ortho pyrrolidine, benzyl-substituted heterocycle CCR1 antagonists for autoimmune diseases and inflammation” (Pharmacopeia, LLC, priority 2007, dated 2012)
# Molecular target: T1, human CCR1 (Homo sapiens, UniProt P32246)
# T1 sequence (P32246 1-355): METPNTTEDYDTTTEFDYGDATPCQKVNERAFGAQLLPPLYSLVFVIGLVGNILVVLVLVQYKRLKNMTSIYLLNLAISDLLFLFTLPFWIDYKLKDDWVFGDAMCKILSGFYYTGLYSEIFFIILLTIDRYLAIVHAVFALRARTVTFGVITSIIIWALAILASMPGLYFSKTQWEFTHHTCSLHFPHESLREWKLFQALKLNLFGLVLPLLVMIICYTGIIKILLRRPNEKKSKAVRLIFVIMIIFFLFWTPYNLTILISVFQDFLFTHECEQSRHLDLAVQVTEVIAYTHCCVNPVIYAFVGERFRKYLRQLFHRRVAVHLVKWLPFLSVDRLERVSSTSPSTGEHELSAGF
# Assay: CCR1 binding protocol (SPA, [125I]-MIP-1α displacement)
# Conditions: cell membrane expressing human CCR1, 0.1 nM [125I]-MIP-1α, 4 hours at ambient temperature; read-out: Relative potency (IC50)
# Protocol: The following protocol was used to test compounds for CCR1 binding. A mixture, including scintillation proximity assay (SPA) beads and cell membrane expressing human CCR1, was prepared in assay buffer (130 mM NaCl+5 mM KCl+1 mM MnCl+50 mM Tris HCl at pH 7.4+0.1% bovine serum albumin (BSA)) at the ratio of 50 μg/ml membrane to 10 mg/ml SPA beads. 10 μl of the mixture was transferred to each well of a 384-well assay plate yielding a final concentration for the membrane and SPA beads of 0.5 μg/well and 100 μg/well, respectively
# To generate different concentrations of the test compound, compound stocks were prepared using 10 step ½ log dilutions with a high concentration of 10 mM in DMSO and the lowest concentration being DMSO only without compound. An intermediate 40× dilution was then prepared in the assay buffer. The compound was then transferred at 10 μl/well to the assay plate. 0.5 nM [^125 I]-labeled macrophage inflammatory protein-1α (MIP-1α, an endogenous CCR1 ligand) in the assay buffer was transferred to the assay plate at 5 μl/well, for a final ligand concentration of 0.1 nM. The assay plate was then centrifuged at 2500 rpm for 2 minutes and incubated for 4 hours at ambient temperature, at which time the raw data was recorded using microbeta. The IC50 was then calculated using Graphpad Prism.
row,SMILES,IC50
1,CN1C(=O)COc2ccc(NC(=O)N3CCC[C@@H]3c3oncc3Cc3ccc(Cl)cc3)cc21 [Compound 3],50 to 500 nM
2,O=C(Nc1ccc(C(F)(F)F)cc1)N1CCC[C@@H]1c1oncc1Cc1ccc(Cl)cc1 [Compound 5],50 to 500 nM
3,Cc1noc([C@H]2CCCN2C(=O)Nc2ccc(C(F)(F)F)cc2)c1Cc1ccc(Cl)cc1 [Compound 6],500 to 5000 nM
4,Cc1cc(C(F)(F)F)cc(C)c1NC(=O)N1CCC[C@@H]1c1ncncc1Cc1ccc(Cl)cc1 [Compound 12],< 50 nM
5,Cc1cc(Cl)cc(C)c1NC(=O)N1CCC[C@@H]1c1ncncc1Cc1ccc(Cl)cc1 [Compound 13],< 50 nM
6,Cc1noc(-c2ccccc2)c1NC(=O)N1CCC[C@@H]1c1ncncc1Cc1ccc(Cl)cc1 [Compound 14],< 50 nM
7,Cc1onc(-c2ccccc2)c1NC(=O)N1CCC[C@@H]1c1ncncc1Cc1ccc(Cl)cc1 [Compound 15],< 50 nM
8,Cc1ncc(Cc2ccc(Cl)cc2)c([C@H]2CCCN2C(=O)Nc2c(C)cc(Cl)cc2C)n1 [Compound 18],50 to 500 nM
9,C[C@H](NC(=O)N1CCC[C@@H]1c1ncncc1Cc1ccc(Cl)cc1)c1ccc(C(F)(F)F)cc1 [Compound 20],50 to 500 nM
10,O=C(N[C@H]1CCOc2c(F)cccc21)N1CCC[C@@H]1c1ncncc1Cc1ccc(Cl)cc1 [Compound 22],50 to 500 nM
11,O=C(NCc1ccc(C(F)(F)F)cc1)N1CCC[C@@H]1c1ncncc1Cc1ccc(Cl)cc1 [Compound 25],50 to 500 nM
12,Cc1ncnc([C@H]2CCCN2C(=O)NC2(c3ccccc3)CC2)c1Cc1ccc(Cl)cc1 [Compound 26],50 to 500 nM
13,O=C(N[C@H]1CCCc2ccccc21)N1CCC[C@@H]1c1nccn1Cc1ccc(Cl)cc1 [Compound 29],< 50 nM
14,Cc1oc(-c2ccccc2)cc1NC(=O)N1CCC[C@@H]1c1nccn1Cc1ccc(Cl)cc1 [Compound 31],< 50 nM
15,O=C(NC1CCCOc2ccccc21)N1CCC[C@@H]1c1nccn1Cc1ccc(Cl)cc1 (some centres unmarked) [Compound 32],< 50 nM
16,Cc1cc(Cl)cc(C)c1NC(=O)N1CCC[C@@H]1c1nccn1Cc1ccc(Cl)cc1 [Compound 33],< 50 nM
17,Cc1onc(-c2ccccc2)c1NC(=O)N1CCC[C@@H]1c1nccn1Cc1ccc(Cl)cc1 [Compound 35],< 50 nM
18,Cc1nc(-c2ccccc2)sc1NC(=O)N1CCC[C@@H]1c1nccn1Cc1ccc(Cl)cc1 [Compound 36],< 50 nM
19,O=C(Nc1ccc(OC(F)(F)F)cc1)N1CCC[C@@H]1c1nccn1Cc1ccc(Cl)cc1 [Compound 39],50 to 500 nM
20,O=C(Nc1ccc(SC(F)(F)F)cc1)N1CCC[C@@H]1c1nccn1Cc1ccc(Cl)cc1 [Compound 40],50 to 500 nM
21,CC[C@H](NC(=O)N1CCC[C@@H]1c1nccn1Cc1ccc(Cl)cc1)c1ccc(C(F)(F)F)cc1 [Compound 44],50 to 500 nM
22,Cc1cc(NC(=O)N2CCC[C@@H]2c2nccn2Cc2ccc(Cl)cc2)c(C(F)(F)F)o1 [Compound 45],500 to 5000 nM
23,O=C(Nc1ccc(C(F)(F)F)cc1)N1CCC[C@@H]1c1nccn1Cc1ccccc1 [Compound 47],500 to 5000 nM
24,CC1(C)CC(NC(=O)N2CCC[C@@H]2c2nnnn2Cc2ccc(Cl)cc2)c2ccccc2O1 (some centres unmarked) [Compound 49],50 to 500 nM
25,N#C/N=C(\N[C@H]1CCCc2ccccc21)N1CCC[C@@H]1c1nnnn1Cc1ccc(Cl)cc1 [Compound 50],500 to 5000 nM
26,Cc1onc(-c2ccccc2)c1NC(=O)N1CCC[C@@H]1c1nnnn1Cc1ccc(Cl)cc1 [Compound 52],< 50 nM
27,O=C(Nc1ccc(C(F)(F)F)cc1)N1CCC[C@@H]1c1nnnn1Cc1ccc(Cl)cc1 [Compound 53],< 50 nM
28,O=C(N[C@H]1CCc2ccccc2C1)N1CCC[C@@H]1c1ncnn1Cc1ccc(Cl)cc1 [Compound 56],< 50 nM

# The next lines start with the values.
row,IC50,SMILES
1,< 50 nM,Cc1noc([C@H]2CCCN2C(=O)Nc2c(C)noc2C)c1Cc1ccc(Cl)cc1 [Compound 1]
2,50 to 500 nM,Cc1noc(-c2ccccc2)c1NC(=O)N1CCC[C@@H]1c1oncc1Cc1ccc(Cl)cc1 [Compound 2]
3,50 to 500 nM,O=C(N[C@H]1CCOc2cc(C(F)(F)F)ccc21)N1CCC[C@@H]1c1oncc1Cc1ccc(Cl)cc1 [Compound 4]
4,50 to 500 nM,Cc1noc(C)c1NC(=O)N1CCC[C@@H]1c1noc(C)c1Cc1ccc(Cl)cc1 [Compound 7]
5,50 to 500 nM,Cn1cc(Cc2ccc(Cl)cc2)c([C@H]2CCCN2C(=O)Nc2ccc(C(F)(F)F)cc2)n1 [Compound 8]
6,500 to 5000 nM,Cc1noc(-c2ccccc2)c1NC(=O)N1CCC[C@@H]1c1nn(C)c(C)c1Cc1ccc(Cl)cc1 [Compound 9]
7,500 to 5000 nM,O=C(Nc1ccc(C(F)(F)F)cc1)N1CCC[C@@H]1c1[nH]ncc1Cc1ccc(Cl)cc1 [Compound 10]
8,500 to 5000 nM,Cn1ncc(Cc2ccc(Cl)cc2)c1[C@H]1CCCN1C(=O)Nc1ccc(C(F)(F)F)cc1 [Compound 11]
9,50 to 500 nM,Cc1ncc(Cc2ccc(Cl)cc2)c([C@H]2CCCN2C(=O)Nc2c(C)cc(C(F)(F)F)cc2C)n1 [Compound 16]
10,50 to 500 nM,CN1C(=O)COc2ccc(NC(=O)N3CCC[C@@H]3c3ncncc3Cc3ccc(Cl)cc3)cc21 [Compound 17]
11,50 to 500 nM,Cc1ncnc([C@H]2CCCN2C(=O)Nc2c(C)noc2C)c1Cc1ccc(Cl)cc1 [Compound 19]
12,50 to 500 nM,Cc1ncc(Cc2ccc(Cl)cc2)c([C@H]2CCCN2C(=O)Nc2c(C)noc2-c2ccccc2)n1 [Compound 21]
13,50 to 500 nM,O=C(Nc1ccc(C(F)(F)F)cc1)N1CCC[C@@H]1c1ncncc1Cc1ccc(Cl)cc1 [Compound 23]
14,50 to 500 nM,O=C(N[C@H]1CCOc2cc(C(F)(F)F)ccc21)N1CCC[C@@H]1c1ncncc1Cc1ccc(Cl)cc1 [Compound 24]
15,500 to 5000 nM,Cc1ncc(Cc2ccc(Cl)cc2)c([C@H]2CCCN2C(=O)Nc2ccc3c(c2)N(C)C(=O)CO3)n1 [Compound 27]
16,500 to 5000 nM,CC(C)(NC(=O)N1CCC[C@@H]1c1ncncc1Cc1ccc(Cl)cc1)c1ccccc1 [Compound 28]
17,< 50 nM,Cc1cc(C(F)(F)F)cc(C)c1NC(=O)N1CCC[C@@H]1c1nccn1Cc1ccc(Cl)cc1 [Compound 30]
18,< 50 nM,Cc1noc(-c2ccccc2)c1NC(=O)N1CCC[C@@H]1c1nccn1Cc1ccc(Cl)cc1 [Compound 34]
19,< 50 nM,CSc1ccc(NC(=O)N2CCC[C@@H]2c2nccn2Cc2ccc(Cl)cc2)cc1 [Compound 37]
20,50 to 500 nM,O=C(Nc1ccc(C(F)(F)F)cc1)N1CCC[C@@H]1c1nccn1Cc1ccc(Cl)cc1 [Compound 38]
21,50 to 500 nM,O=C(Nc1ccc(Cl)c(C(F)(F)F)c1)N1CCC[C@@H]1c1nccn1Cc1ccc(Cl)cc1 [Compound 41]
22,50 to 500 nM,N#C/N=C(\Nc1ccc(C(F)(F)F)cc1)N1CCC[C@@H]1c1nccn1Cc1ccc(Cl)cc1 [Compound 42]
23,50 to 500 nM,O=C(NCc1ccc(Cl)cc1Cl)N1CCC[C@@H]1c1nccn1Cc1ccc(Cl)cc1 [Compound 43]
24,500 to 5000 nM,Cc1ccc(Cn2ccnc2[C@H]2CCCN2C(=O)Nc2ccc(C(F)(F)F)cc2)cc1 [Compound 46]
25,< 50 nM,O=C(N[C@H]1CCCc2ccccc21)N1CCC[C@@H]1c1nnnn1Cc1ccc(Cl)cc1 [Compound 48]
26,< 50 nM,Cc1noc(-c2ccccc2)c1NC(=O)N1CCC[C@@H]1c1nnnn1Cc1ccc(Cl)cc1 [Compound 51]
27,50 to 500 nM,O=C(Nc1ccc(Cl)cc1F)N1CCC[C@@H]1c1nnnn1Cc1ccc(Cl)cc1 [Compound 54]
28,< 50 nM,O=C(N[C@H]1CCOc2cc(C(F)(F)F)ccc21)N1CCC[C@@H]1c1nnnn1Cc1ccc(Cl)cc1 [Compound 55]
